# Legend:
# [1] = biological target: T1, hTLR4 (human TLR4) (Homo sapiens, UniProt O00206); test: SEAP activity (NF-κB activity) in HEK-Blue-hTLR4 cells; type: cell-based
# T1 construct: host or cells: HEK-Blue-hTLR4 (HEK293-derived reporter line)
# Protocol: HEK-Blue™-hTLR4 cells were dispensed into 24-well plates (BD Biosciences) to a cell number of 2×10^5 cells/well, and incubation was performed overnight. The next day, the culture was removed and medium replacement was performed. Then, a portion (200 μl) of the culture was transferred to a microcentrifuge tube and heated at 65° C. for 10 minutes using a heating block (FINEPCR. Co., Seoul, Korea). Subsequently, the culture was transferred to 96-well plates (BD Biosciences), and absorbance was measured at 405 nm using the HEK-Blue™ detection kit (InvivoGen) and a microplate reader spectrophotometer (Molecular Devices Inc., Silicon Valley, Calif., USA), to analyze an expression level of SEAP (secreted alkaline phosphatase).
# To this end, the inducible secreted embryonic alkaline phosphatase (SEAP) reporter gene was placed under the control of an IL-12 p40 minimal promoter (IL-12 p40 is produced by activation of NF-κB and AP-1 (activator protein 1) after stimulation of TLR4) which contains sites where DNAs of NF-κB and AP-1 bind. Then, HEK-Blue™-hTLR4 cells were treated with varying concentrations of TIP or TIP (TIP W/O CPP), to which CPP is not linked, at 12.5, 25, 50 μM, and then an average value of SEAP activity was calculated to measure TLR4 activity. The results are illustrated in FIGS. 1(a) and 1(b).
# The results are illustrated in FIGS. 12(a) and 12(b).
# [2] = biological target: T2, TLR3 (Mus musculus, UniProt Q99MB1); test: TNF-α and IFN-β secretion in RAW 264.7 cells with Poly(I:C); type: cell-based
# T2 construct: host or cells: RAW 264.7
# T2 sequence (Q99MB1 26-905): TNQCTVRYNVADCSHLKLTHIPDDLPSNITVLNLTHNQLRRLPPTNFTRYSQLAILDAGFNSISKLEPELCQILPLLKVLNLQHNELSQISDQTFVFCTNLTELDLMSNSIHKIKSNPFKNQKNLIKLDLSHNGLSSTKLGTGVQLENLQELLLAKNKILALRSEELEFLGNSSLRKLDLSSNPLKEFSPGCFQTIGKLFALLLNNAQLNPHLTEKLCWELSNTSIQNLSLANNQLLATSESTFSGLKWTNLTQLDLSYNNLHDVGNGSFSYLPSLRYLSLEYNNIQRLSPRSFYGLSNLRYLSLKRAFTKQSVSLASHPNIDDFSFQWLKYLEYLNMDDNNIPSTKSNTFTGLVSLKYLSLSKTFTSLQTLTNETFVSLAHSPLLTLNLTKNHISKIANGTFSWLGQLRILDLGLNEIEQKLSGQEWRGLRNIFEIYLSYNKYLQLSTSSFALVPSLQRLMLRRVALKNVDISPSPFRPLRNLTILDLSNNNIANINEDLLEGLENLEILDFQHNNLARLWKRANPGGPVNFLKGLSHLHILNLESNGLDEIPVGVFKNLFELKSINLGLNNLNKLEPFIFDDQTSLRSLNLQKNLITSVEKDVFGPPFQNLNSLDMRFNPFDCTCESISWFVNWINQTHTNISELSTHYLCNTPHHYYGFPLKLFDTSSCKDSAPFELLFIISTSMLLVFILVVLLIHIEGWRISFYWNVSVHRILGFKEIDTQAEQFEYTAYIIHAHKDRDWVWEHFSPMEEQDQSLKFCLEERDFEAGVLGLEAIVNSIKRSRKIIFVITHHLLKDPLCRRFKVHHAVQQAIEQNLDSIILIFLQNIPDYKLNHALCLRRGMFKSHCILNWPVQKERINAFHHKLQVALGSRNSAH
# [3] = test system: liver tissues of C57BL/6J mice; test: Cytokine expression in liver tissue of LPS-treated mice (Western blotting); type: in vivo, mouse; settings: LPS and TIP1, 2 hours
# [4] = test system: NLRP3 inflammasome; test: IL-1β secretion (ELISA) in LPS/ATP-treated THP1 cells; type: cell-based, human; settings: TIP1 and LPS/ATP
# [5] = test system: collagen-induced arthritis (CIA) model DBA/1J mice; test: Collagen-induced arthritis (CIA) model; type: in vivo, mouse
# Protocol: Specifically, chicken collagen type II (Sigma-Aldrich Co. LLC) and complete Freund's adjuvant (Sigma-Aldrich Co. LLC.) were mixed at 1:1 and emulsified. Then, 100 μg of the emulsified collagen solution was injected intradermally into the mouse tail to induce primary immunization, which was designated day 0. After 14 days of the primary immunization, the emulsified collagen solution was injected again intradermally into the mouse tail to induce secondary immunization (boosting).
# These plans included a total of seven experimental groups (n=8) and named as follows: (1) Non-treated, normal group (normal); (2) control (vehicle-treated) (CIA, n=8); (3) 2.5 nmol/g TIP1-treated group (CIA-TIP1 (2.5 nmol/g)); (4) 5 nmol/g TIP1-treated group (CIA-TIP1 (5 nmol/g)); (5) 10 nmol/g TIP1-treated group (CIA-TIP1 (10 nmol/g)); (6) 5 μg/g prednisolone (conventional therapeutic agent for arthritis)-treated group (CIA-prednisolone (5 μg/g)); (7) 10 nmol/g TIP1-treated group in post-arthritis phase (PAP) (PAP CIA-TIP1 (10 nmol/g)). TIP1 and prednisolone were dissolved in saline and injected intraperitoneally. Then, changes in behavioral development and disorders such as apparent symptoms and body weight, mouse squeaking, foot volume, and arthritis index were analyzed. The results are illustrated in FIGS. 19(a) and 19(b) and 20(a)-20(d).
# Then, the mice were sacrificed on day 45 and joint tissues were sampled. Subsequently, 3D images and bone mineral density (BMD) of the joint tissues were analyzed through micro-computed tomography (Micro-CT). […] The results are illustrated in FIGS. 21 and 22.
# [6] = TIP1 2.5, 5, 10 nmol/g i.p. daily, compared with prednisolone 5 mg/kg
# T1 sequence (O00206 24-839): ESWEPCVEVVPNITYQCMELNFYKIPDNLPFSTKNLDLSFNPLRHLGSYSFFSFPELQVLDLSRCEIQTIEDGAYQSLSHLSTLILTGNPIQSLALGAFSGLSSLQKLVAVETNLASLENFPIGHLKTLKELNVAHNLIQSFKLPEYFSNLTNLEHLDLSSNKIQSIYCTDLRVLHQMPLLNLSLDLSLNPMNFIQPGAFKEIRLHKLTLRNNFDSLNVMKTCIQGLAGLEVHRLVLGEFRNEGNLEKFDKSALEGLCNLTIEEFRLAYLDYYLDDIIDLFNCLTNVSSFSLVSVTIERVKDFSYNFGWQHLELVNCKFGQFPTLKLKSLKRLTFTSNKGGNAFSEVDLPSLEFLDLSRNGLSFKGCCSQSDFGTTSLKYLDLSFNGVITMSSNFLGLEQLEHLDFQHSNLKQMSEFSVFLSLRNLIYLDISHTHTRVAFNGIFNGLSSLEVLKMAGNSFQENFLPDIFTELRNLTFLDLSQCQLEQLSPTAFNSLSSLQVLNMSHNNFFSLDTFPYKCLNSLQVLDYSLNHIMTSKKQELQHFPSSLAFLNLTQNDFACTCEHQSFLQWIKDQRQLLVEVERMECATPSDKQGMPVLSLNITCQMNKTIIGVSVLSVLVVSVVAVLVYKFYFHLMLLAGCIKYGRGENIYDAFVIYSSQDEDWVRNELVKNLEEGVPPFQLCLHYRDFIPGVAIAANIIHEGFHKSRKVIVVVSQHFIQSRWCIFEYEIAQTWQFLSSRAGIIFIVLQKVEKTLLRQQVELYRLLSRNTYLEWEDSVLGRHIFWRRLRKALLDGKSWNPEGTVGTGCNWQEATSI
# T1 sequence (Q9Y6Y9 17-160 partner limits assumed): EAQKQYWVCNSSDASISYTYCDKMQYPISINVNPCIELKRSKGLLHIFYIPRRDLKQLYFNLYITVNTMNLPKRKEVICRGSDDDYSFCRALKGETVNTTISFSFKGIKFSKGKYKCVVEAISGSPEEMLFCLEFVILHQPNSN
sequence,measurement,setting,value
RQIKIWFQNRRMKWKKSHCRVLLI (TIP1),LPS-induced SEAP activity,"[1]; TIP 12.5, 25, 50 μM, then LPS, FIG. 1(a)",decreased LPS-induced SEAP activity in a concentration-dependent manner
same,NF-κB activity (SEAP activity),"[1]; together with LPS, FIG. 12(a)",highest inhibitory effect on NF-κB activity
same,secretion level of TNF-α,[2]; Poly(I:C) (TLR3),decreased
same,decrease of TNF-α secretion (inhibitory effect on TLR3 signaling),"[2]; Poly(I:C), at 50 μM",92%
same,secretion level of IFN-β,"[2]; TIP1 together with Poly(I:C), ELISA",decreased
same,LPS-induced expression level of IL-6 in liver tissue,[3],remarkably decreased
same,LPS-induced expression level of TNF-α in liver tissue,[3],remarkably decreased
same,secretion level of IL-1β,[4],decreased
same,arthritis index increase,[5]; [6],inhibited
same,body weight loss caused by induction of arthritis,[5]; [6],inhibited
same,foot volume,[5]; [6],inhibited
same,squeaking,[5]; [6],inhibited
same,severely swollen foot (visual observation),"[5]; TIP1 i.p., FIG. 19(b)",alleviated similarly to the normal mice
same,"histopathological modification in cartilage, subchondral bone, femur, tibia and meniscus (H&E)","[5]; knee joint, once daily for 30 days",decreased
same,"bones damaged by the CIA model (Micro-CT 3D image, bone mineral density)","[5]; once daily for 30 days, sacrificed day 45",alleviated similarly to the normal mice

# Source: patent US11352399B2, “Peptide for toll-like receptor (TLR) inhibition and pharmaceutical composition comprising same” (GENESEN CO., LTD., priority 2017, dated 2022)
